The term IC50 denotes the concentration that gives 50% inhibition. A lower IC50 goes with greater potency in that assay.

The test deals with Gag-Pol polyprotein (Human immunodeficiency virus type 1 group M subtype B (isolate HXB2), UniProt P04585). As to the kind of experiment: concentration-response of HIV-1 RNase H blockers – biochemical, probe assessment, dose response (AID 652). Conditions: pH 8; 23 °C.
In the case of `CCn1cc(C(=O)NCc2ccco2)c(=O)c2cc(S(=O)(=O)N3CCc4ccccc4C3)ccc21` [6-(3,4-dihydro-1H-isoquinolin-2-ylsulfonyl)-1-ethyl-N-(2-furanylmethyl)-4-oxo-3-quinolinecarboxamide], the IC50 is 9.32 µM.

On to `COc1cc(-c2nnc3sc(-c4cccnc4)nn23)cc(OC)c1OC` [6-(3-pyridinyl)-3-(3,4,5-trimethoxyphenyl)-[1,2,4]triazolo[3,4-b][1,3,4]thiadiazole], for which the IC50 is over 50 µM.

`COc1cc(-c2nnc3sc(Cc4ccc(Cl)cc4)nn23)cc(OC)c1OC` [6-(4-chlorobenzyl)-3-(3,4,5-trimethoxyphenyl)-[1,2,4]triazolo[3,4-b][1,3,4]thiadiazole] showed an IC50 of 1.08 µM.

`c1c2c(cc3sc(N4CCOCC4)nc13)OCO2` [6-(4-morpholinyl)-[1,3]dioxolo[4,5-f][1,3]benzothiazole] showed an IC50 of 3.59 µM.

`c1ccc(N2CCN(c3nc4cc5c(cc4s3)OCO5)CC2)cc1` [6-(4-phenyl-1-piperazinyl)-[1,3]dioxolo[4,5-f][1,3]benzothiazole] registered an IC50 of 3.21 µM.

Regarding `Cc1ccccc1NC(=O)c1c(O)n2c3c(cccc3c1=O)CC2` [6-Hydroxy-4-oxo-1,2-dihydro-4H-pyrrolo[3,2,1-ij]quinoline-5-carboxylic acid o-tolylamide], half-maximal inhibition (IC50) was put at 21.7 µM.

`O=C(NCCc1ccccc1)c1c(O)n2c3c(cccc3c1=O)CC2` [6-Hydroxy-4-oxo-1,2-dihydro-4H-pyrrolo[3,2,1-ij]quinoline-5-carboxylic acid phenethyl-amide] returned an IC50 of 9.94 µM.

For `Cc1oc(-c2ccc(Cl)cc2)cc1-c1nn2c(-c3ccoc3C)nnc2s1` [6-[5-(4-chlorophenyl)-2-methyl-3-furanyl]-3-(2-methyl-3-furanyl)-[1,2,4]triazolo[3,4-b][1,3,4]thiadiazole], the IC50 was 1.18 µM.

The compound `Fc1ccc(-c2ccc(-c3nn4c(-c5ccco5)nnc4s3)o2)cc1` [6-[5-(4-fluorophenyl)-2-furanyl]-3-(2-furanyl)-[1,2,4]triazolo[3,4-b][1,3,4]thiadiazole] displayed an IC50 of 8.95 µM. Against the preceding compound, the IC50 is about 7.6-fold higher.

For the compound `Cc1ccc(-c2cc(C(=O)NC3=NCCS3)c3cc(Br)ccc3n2)o1` [6-bromanyl-N-(4,5-dihydro-1,3-thiazol-2-yl)-2-(5-methylfuran-2-yl)quinoline-4-carboxamide], the midpoint of inhibition, the IC50, lay at 0.175 µM.

Consider `COc1ccc(N2CCN(Cc3cc(=O)oc4cc(C)c(Cl)c(C)c34)CC2)cc1` [6-chloranyl-4-[[4-(4-methoxyphenyl)piperazin-1-yl]methyl]-5,7-dimethyl-chromen-2-one], for which it took 3.86 µM to reach half-maximal inhibition (IC50).

`O=c1cc(CN2CCN(c3ccccc3)CC2)c2cc(O)c(-c3ccccc3)cc2o1` [6-hydroxy-7-phenyl-4-[(4-phenyl-1-piperazinyl)methyl]-1-benzopyran-2-one] came in with an IC50 of 5.01 µM. The IC50 values of the last two compounds are within 1.5-fold of each other.

The compound `CC(C)(C)C1=Nn2c(nnc2-c2ccccn2)SC1` [6-tert-butyl-3-(2-pyridinyl)-7H-[1,2,4]triazolo[3,4-b][1,3,4]thiadiazine] came in with an IC50 of 7.22 µM.

`CC1(C)Cc2[nH]c(=S)c(C#N)cc2CO1` [7,7-dimethyl-2-sulfanylidene-5,8-dihydro-1H-pyrano[4,3-b]pyridine-3-carbonitrile] had an IC50 of 4.03 µM.

Compound `O=C1CC(c2ccco2)Cc2nc(Nc3nc(-c4ccccc4)c4ccccc4n3)ncc21` (stereo not given) [7-(2-furanyl)-2-[(4-phenyl-2-quinazolinyl)amino]-7,8-dihydro-6H-quinazolin-5-one] yielded an IC50 of 13.7 µM.

For `CCN1CCN(c2nc(C)nc3c2sc(=S)n3C)CC1` [7-(4-ethyl-1-piperazinyl)-3,5-dimethyl-2-thiazolo[4,5-d]pyrimidinethione], the midpoint of inhibition, the IC50, lay at 2.94 µM.

Regarding `Cc1ccc(-c2cc(C(F)F)n3ncc(C(=O)NCc4ccco4)c3n2)cc1` [7-(difluoromethyl)-N-(2-furanylmethyl)-5-(4-methylphenyl)-3-pyrazolo[1,5-a]pyrimidinecarboxamide], inhibition was half-maximal at 15.3 µM (IC50).

For `COc1ccc(C2c3c(oc4ccc(Cl)cc4c3=O)C(=O)N2Cc2ccco2)cc1OC` (stereo not given) [7-chloranyl-1-(3,4-dimethoxyphenyl)-2-(furan-2-ylmethyl)-1H-chromeno[2,3-c]pyrrole-3,9-dione], half-maximal inhibition (IC50) required 13.5 µM. The IC50 values of the last two compounds are within 1.5-fold of each other.

`CCOc1cc(C2c3c(oc4cc(C)c(Cl)cc4c3=O)C(=O)N2Cc2ccco2)ccc1O` (stereo not given) [7-chloranyl-1-(3-ethoxy-4-oxidanyl-phenyl)-2-(furan-2-ylmethyl)-6-methyl-1H-chromeno[2,3-c]pyrrole-3,9-dione] returned an IC50 of 6.99 µM. Compared with the last compound, the IC50 is about 1.9-fold lower.

`O=C(NCc1ccco1)c1cc2cc3ccc(Cl)cc3nc2o1` [7-chloranyl-N-(furan-2-ylmethyl)furo[2,3-b]quinoline-2-carboxamide] registered an IC50 of 19.2 µM.

In the case of `C=CCSc1nc2c(c(=O)[nH]c(=O)n2C)n1CC` [7-ethyl-3-methyl-8-prop-2-enylsulfanylpurine-2,6-dione], the IC50 was 3.75 µM.

Turning to `COc1ccc(Br)cc1C1CC(=O)N2CN(C)CSC2=C1C#N` (stereo not given) [8-(5-bromanyl-2-methoxy-phenyl)-3-methyl-6-oxidanylidene-2,4,7,8-tetrahydropyrido[2,1-b][1,3,5]thiadiazine-9-carbonitrile], the IC50 was determined as 7.18 µM. This IC50 is about 1.9-fold higher than that of the compound before.

With `COc1ccccc1/N=c1\oc2c(OC)cccc2cc1C(=O)NCc1ccco1` [8-Methoxy-2-[(Z)-2-methoxy-phenylimino]-2H-chromene-3-carboxylic acid (furan-2-ylmethyl)-amide], it took 3.13 µM to reach half-maximal inhibition (IC50).

With `O=c1ccc2cc3c([nH]c4ccc(Br)cc43)oc-2c1O` [9-bromo-4-hydroxy-6H-[1]benzopyrano[2,3-b]indol-3-one], the IC50 was found to be 1.49 µM.

`O=C(c1ccccc1F)N1CCN(S(=O)(=O)c2ccc(S(=O)(=O)N3CCCCC3)cc2)CC1` [(2-Fluoro-phenyl)-{4-[4-(piperidine-1-sulfonyl)-benzenesulfonyl]-piperazin-1-yl}-methanone] yielded an IC50 of 44 µM.

For `OCCN1CCN(C(=S)c2ccc(Cl)c(Cl)c2)CC1` [(3,4-dichlorophenyl)-[4-(2-hydroxyethyl)-1-piperazinyl]methanethione], the IC50 was 3.2 µM.

In the case of `CN1CCN(C(=O)c2sc(=S)n(-c3ccccc3)c2N)CC1` [(4-amino-3-phenyl-2-sulfanylidene-1,3-thiazol-5-yl)-(4-methylpiperazin-1-yl)methanone], 2.29 µM corresponded to half-maximal inhibition (IC50).

As to `Nc1c(C(=O)N2CCOCC2)sc(=S)n1-c1ccccc1` [(4-amino-3-phenyl-2-sulfanylidene-1,3-thiazol-5-yl)-morpholin-4-ylmethanone], the IC50 came to 4.97 µM.

`Nc1c(C(=O)N2CCCCC2)sc(=S)n1-c1ccccc1` [(4-amino-3-phenyl-2-sulfanylidene-1,3-thiazol-5-yl)-piperidin-1-ylmethanone] returned an IC50 of 1.85 µM.

Consider `COc1ccccc1-c1nnc2n1N=C(c1ccc(O)c(O)c1)CS2` [(4E)-4-[3-(2-methoxyphenyl)-5H-[1,2,4]triazolo[3,4-b][1,3,4]thiadiazin-6-ylidene]-2-oxidanyl-cyclohexa-2,5-dien-1-one], for which it took 1 µM to reach half-maximal inhibition (IC50).

For the compound `O=c1[nH]c(=O)n(-c2ccc(F)cc2)c(O)c1C=Nc1ccccc1N1CCCC1` [(5E)-1-(4-fluorophenyl)-5-[[2-(1-pyrrolidinyl)anilino]methylidene]-1,3-diazinane-2,4,6-trione], it took 23.1 µM to reach half-maximal inhibition (IC50).

In the case of `CN(C)c1ccc(NC=C2C(=O)NC(=O)N(CCC3=CCCCC3)C2=O)cc1` [(5Z)-1-[2-(cyclohexen-1-yl)ethyl]-5-[[[4-(dimethylamino)phenyl]amino]methylidene]-1,3-diazinane-2,4,6-trione], the IC50 came out at 3.8 µM. This IC50 lies about 6.1-fold lower than the previous one.

`CCOC(=O)N1CCC2=C(C#N)C(=N)C(C#N)(C#N)[C@H](c3ccc(OC(C)C)c(OCC)c3)[C@H]2C1` [(8S,8aR)-6-amino-5,7,7-tricyano-8-(3-ethoxy-4-isopropoxy-phenyl)-1,3,8,8a-tetrahydroisoquinoline-2-carboxylic acid ethyl ester] came in with a concentration for half-maximal inhibition (IC50) of 21.7 µM.

Regarding `CCCCC[C@H](O)C=C[C@H]1C=CC(=O)[C@@H]1C/C=C\CCCC(=O)O` [(Z)-7-[(1R,5S)-2-oxidanylidene-5-[(E,3S)-3-oxidanyloct-1-enyl]cyclopent-3-en-1-yl]hept-5-enoic acid], the IC50 is 1.06 µM.

`CC(Cc1ccc(O)c(O)c1)C(C)Cc1ccc(O)c(O)c1` (stereo not given) [LOX inhibitor, N/A]: the IC50 is 0.664 µM.

Consider `CCC1(C)Cc2c(sc3c2c(=O)n(C)c2nnc(SCc4ccc5c(c4)OCO5)n32)CO1` (stereo not given) [MLS000030507], for which the IC50 was 23 µM.

As for `CC1CCN(S(=O)(=O)c2ccc(NC(=O)Cn3nnc(-c4ccccc4)n3)cc2)CC1` [MLS000032813], it took 22 µM to reach half-maximal inhibition (IC50).

Compound `O=C1c2sc3nc4ccccc4n3c2C(=O)N1c1ccccc1Cl` [MLS000038506] came in with an IC50 of 1.13 µM.

In the case of `c1ccc(-n2ncc3c2ncn2nc(-c4ccco4)nc32)cc1` [MLS000041701], the IC50 stood at 8.01 µM. Compared with the last compound, the IC50 is about 7.1-fold higher.

`COC(=O)N(c1ccc(OC)cc1)P1(=S)OCCC(C)O1` (stereo not given) [MLS000043492] gave an IC50 of 1.02 µM. This IC50 is about 7.9-fold lower than that of the compound before.

As for `Cc1ccccc1OCc1nc(-c2ccc(NC(=O)c3ccc4c(c3)OCO4)cc2)no1` [MLS000047257], the IC50 worked out at 4.58 µM.

As for `CC(=O)c1cccc(NC(=O)c2cc(-c3ccc(C)cc3)on2)c1` [MLS000050755], half-maximal inhibition (IC50) required 13.3 µM. This IC50 lies about 2.9-fold higher than the previous one.

On to `O=C(CCN1C(=O)c2ccccc2C1=O)Nc1ccc(-c2nc3ccccc3o2)cc1` [MLS000051238], for which the IC50 is 5.8 µM.

For the compound `COc1cc(C(=O)Nc2oc(-c3ccccc3)c(-c3ccccc3)c2C#N)cc(OC)c1OC` [MLS000051579], half-maximal inhibition (IC50) was put at 6.05 µM. The IC50 values of the last two compounds are within 1.5-fold of each other.

Compound `Cc1cc(C)c2oc(-c3ccc(Cl)c(NC(=O)c4ccc(C#N)cc4F)c3)nc2c1` [MLS000052597] gave an IC50 of 2.73 µM.

In turn, `COC(=O)N(c1ccccc1)P1(=S)OCCO1` [MLS000052970] yielded an IC50 of 2.06 µM.

Regarding `O=C(Nc1nc(-c2ccncc2)cs1)c1ccco1` [MLS000053154], half-maximal inhibition (IC50) was put at 5.64 µM.

`N#Cc1c(NC(=O)CN2CCN(S(=O)(=O)c3ccc4c(c3)OCCO4)CC2)sc2c1CCC2` [MLS000053165] had an IC50 of 3.48 µM.

In turn, `Cn1ccnc1P(=S)(c1nccn1C)N1CCOCC1` [MLS000054793] gave an IC50 of 11.8 µM.

`Cc1cccc(-n2c(N)c(C(=O)N3CCN(C)CC3)sc2=S)c1` [MLS000056753] gave an IC50 of 45.1 µM.

For the origin of these results see BindingDB's records for doi:10.7270/Q2H70D5W (University of Pittsburgh, 2007).
